Reference: patent publication US8937089B2, “Synergistic mixtures of anthranilamide invertebrate pest control agents” (priority 2004, dated 2015)
Where two headings read alike, the source gives them in different places.

Key:
Assay in all cases: whole plant or invertebrate
Assay type in all cases: in vivo
[1] = tested on: potato leafhopper (Empoasca fabae Harris)
Method in brief: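 Bean plants (5–6 days old, one primary leaf excised) were sprayed with 1 mL of compound in 10% acetone/water with 300 ppm X-77 surfactant, 3 replicates. After drying for 1 h, each unit was infested with 5 adult leafhoppers. Units were held 6 days at 19–21 °C and 50–70% RH.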

[2] = tested on: cotton melon aphid (Aphis gossypii Glover)
Method in brief: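 Cotton plants (6–7 days old) pre-infested with 30–40 aphids by cut-leaf method, sprayed with compound (ppm) in 10% acetone/90% water with 300 ppm X-77 surfactant, three replicates. Held 6 days at 19–21 °C, 50–70% RH; contact and/or systemic control assessed.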

[3] = tested on: corn planthopper (Peregrines maidis)
Method in brief: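 Compounds in 10% acetone/90% water with 300 ppm X-77 surfactant sprayed (3 replications) onto 3- to 4-day-old corn plants, dried 1 h, then infested with 10–20 corn planthopper nymphs aged 18–20 days. Held 6 days at 19-21° C. and 50-70% relative humidity; contact and/or systemic control assessed.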

[4] = tested on: green peach aphid (Myzus persicae Sulzer)
Method in brief: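 Compounds formulated in 10% acetone/water with 300 ppm X-77 surfactant were atomized onto aphid-infested radish seedlings, with three replicates per treatment. Infestation was 30–40 aphids transferred on excised leaf pieces, covering contact and systemic exposure. Test units stayed 6 days in a growth chamber at 19–21 °C and 50–70% relative humidity.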

[5] = tested on: western flower thrip (Frankliniella occidentalis Pergande)
Method in brief: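 Compounds in 10% acetone/90% water with 300 ppm non-ionic surfactant were sprayed onto 5- to 7-day-old bean plants, 3 replicates. After 1 h drying, 22–27 adult thrips were added per unit. Units were held 7 days at 25° C, 45–55% RH, assessing contact and/or systemic control.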

[6] = tested on: silverleaf whitefly (Bemisia argentifolii Bellows and Perring)
Method in brief: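 Whitefly-egg-infested 12–14-day-old cotton plants sprayed with compound in 10% acetone/90% water plus 300 ppm non-ionic surfactant, in triplicate. Plants then held 13 days at 28 °C and 50–70% relative humidity before mortality assessment.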

[7] = rate 1 ppm, single compound, spray, 7 days
[8] = rate 500 ppm, single compound, spray, 7 days

**Q.** For `CNC(=O)O/N=C(\SC)C(=O)N(C)C` [Oxamyl], which “% mortality (obs)” value ([1]; rate 0.1 ppm, alone) is on record?
**A.** Its value is 20%.

**Q.** And the “% mortality (obs)” value ([1]; rate 2 ppm, alone)?
**A.** The value was 20%.

**Q.** And the “% mortality (obs)” value ([1]; rate 100 ppm, alone)?
**A.** The value was 100%.

**Q.** And the “% mortality (obs)” value ([2]; rate 1 ppm)?
**A.** The value was 29%.

**Q.** What about the “% mortality (obs)” value ([2]; rate 10 ppm) of the same compound?
**A.** Its value is 37%.

**Q.** And the “% mortality (obs)” value ([2]; rate 1000 ppm)?
**A.** The value was 100%.

**Q.** What about the “% mortality (obs)” value ([3]; Corn Plant Hopper, rate 0.08 ppm) of the same compound?
**A.** The value was 2%.

**Q.** And the “% mortality (obs)” value ([3]; Corn Plant Hopper, rate 0.16 ppm)?
**A.** The value was 5%.

**Q.** What about the “% mortality (obs)” value ([3]; Corn Plant Hopper, rate 0.2 ppm) of the same compound?
**A.** The value was 6%.

**Q.** What about the “% mortality (obs)” value ([4]; Green Peach Aphid, rate 40 ppm) of the same compound?
**A.** The value was 8%.

**Q.** What about the “% mortality (obs)” value ([4]; Green Peach Aphid, rate 70 ppm) of the same compound?
**A.** Its value is 18%.

**Q.** And the “% mortality (obs)” value ([4]; Green Peach Aphid, rate 100 ppm)?
**A.** The value was 35%.

**Q.** What about the “% mortality (obs)” value [5, 7] of the same compound?
**A.** The value was 30%.

**Q.** What about the “% mortality (obs)” value ([5]; rate 50 ppm, single compound, spray, 7 days) of the same compound?
**A.** Its value is 40%.

**Q.** And the “% mortality (obs)” value [5, 8]?
**A.** Its value is 100%.

**Q.** What about the “% mortality (obs)” value ([6]; Table 2B, rate 0.1 ppm) of the same compound?
**A.** Its value is 2%.

**Q.** What about the “% mortality (obs)” value ([6]; Table 2B, rate 0.3 ppm) of the same compound?
**A.** Its value is 0%.

**Q.** And the “% mortality (obs)” value ([6]; Table 2B, rate 1 ppm)?
**A.** Its value is 1%.

**Q.** How did the mortality at 0.4 ppm ([1]; Empoasca fabae, Table 4A, Compound 1 0.4 ppm, read-out: % Mortality (observed)) turn out when `CNC(=O)c1cc(Cl)cc(C)c1NC(=O)c1cc(Br)nn1-c1ncccc1Cl` [Compound 1, 3-bromo-N-[4-chloro-2-methyl-6-[(methylamino)carbonyl]phenyl]-1-(3-chloro-2-pyridinyl)-1H-pyrazole-5-carboxamide] was run?
**A.** Its mortality at 0.4 ppm is 0%.

**Q.** What about the mortality at 1.4 ppm ([1]; Empoasca fabae, Table 4A, Compound 1 1.4 ppm, read-out: % Mortality (observed)) of the same compound?
**A.** Its mortality at 1.4 ppm is 0%.

**Q.** What about the mortality at 4.6 ppm ([1]; Empoasca fabae, Table 4A, Compound 1 4.6 ppm, read-out: % Mortality (observed)) of the same compound?
**A.** Its mortality at 4.6 ppm is 0%.

**Q.** What about the mortality at 4 ppm ([1]; Empoasca fabae, rate 4 ppm, alone, read-out: % mortality (obs)) of the same compound?
**A.** Its mortality at 4 ppm is 23%.

**Q.** And the mortality at 14 ppm ([1]; Empoasca fabae, rate 14 ppm, alone, read-out: % mortality (obs))?
**A.** The mortality at 14 ppm was 37%.

**Q.** What about the mortality at 50 ppm ([1]; Empoasca fabae, rate 50 ppm, alone, read-out: % mortality (obs)) of the same compound?
**A.** Its mortality at 50 ppm is 54%.

**Q.** What about the mortality at 0.8 ppm ([2]; Aphis gossypii, Table 6A, Compound 1 0.8 ppm, read-out: % Mortality (observed)) of the same compound?
**A.** The mortality at 0.8 ppm was 12%.

**Q.** What about the mortality at […] ([2]; Aphis gossypii, Table 6A, Compound 1 4.5 ppm, read-out: % Mortality (observed)) of the same compound?
**A.** Its mortality at […] is 32%.

**Q.** What about the mortality at 25 ppm ([2]; Aphis gossypii, Table 6A, Compound 1 25 ppm, read-out: % Mortality (observed)) of the same compound?
**A.** The mortality at 25 ppm was 23%.

**Q.** What about the mortality at 4 ppm ([2]; Aphis gossypii, rate 4 ppm, read-out: % mortality (obs)) of the same compound?
**A.** Its mortality at 4 ppm is 25%.

**Q.** What about the mortality at 20 ppm ([2]; Aphis gossypii, rate 20 ppm, read-out: % mortality (obs)) of the same compound?
**A.** Its mortality at 20 ppm is 41%.

**Q.** What about the mortality at 100 ppm ([2]; Aphis gossypii, rate 100 ppm, read-out: % mortality (obs)) of the same compound?
**A.** Its mortality at 100 ppm is 49%.

**Q.** What about the mortality at 20 ppm ([3]; Corn Plant Hopper, rate 20 ppm, read-out: % mortality (obs)) of the same compound?
**A.** Its mortality at 20 ppm is 15%.

**Q.** What about the mortality at 100 ppm ([3]; Corn Plant Hopper, rate 100 ppm, read-out: % mortality (obs)) of the same compound?
**A.** The mortality at 100 ppm was 19%.

**Q.** What about the mortality at 500 ppm ([3]; Corn Plant Hopper, rate 500 ppm, read-out: % mortality (obs)) of the same compound?
**A.** The mortality at 500 ppm was 28%.

**Q.** And the mortality at 5 ppm ([3]; Table 5A, Compound 1 5 ppm, read-out: % Mortality (observed))?
**A.** Its mortality at 5 ppm is 6%.

**Q.** And the mortality at 50 ppm ([3]; Table 5A, Compound 1 50 ppm, read-out: % Mortality (observed))?
**A.** Its mortality at 50 ppm is 9%.

**Q.** And the mortality at 150 ppm ([3]; Table 5A, Compound 1 150 ppm, read-out: % Mortality (observed))?
**A.** Its mortality at 150 ppm is 28%.

**Q.** What about the mortality at 10 ppm ([4]; Myzus persicae, in Raphanus sativus, Green Peach Aphid, rate 10 ppm, read-out: % mortality (obs)) of the same compound?
**A.** Its mortality at 10 ppm is 24%.

**Q.** And the mortality at 20 ppm ([4]; Myzus persicae, in Raphanus sativus, Green Peach Aphid, rate 20 ppm, read-out: % mortality (obs))?
**A.** Its mortality at 20 ppm is 35%.

**Q.** And the mortality at 40 ppm ([4]; Myzus persicae, in Raphanus sativus, Green Peach Aphid, rate 40 ppm, read-out: % mortality (obs))?
**A.** Its mortality at 40 ppm is 36%.

**Q.** And the mortality at 2.1 ppm ([4]; Myzus persicae, in Raphanus sativus, Table 7A, Compound 1 2.1 ppm, read-out: % Mortality (observed))?
**A.** The mortality at 2.1 ppm was 5%.

**Q.** What about the mortality at 3.9 ppm ([4]; Myzus persicae, in Raphanus sativus, Table 7A, Compound 1 3.9 ppm, read-out: % Mortality (observed)) of the same compound?
**A.** The mortality at 3.9 ppm was 2%.

**Q.** And the mortality at […] ([4]; Myzus persicae, in Raphanus sativus, Table 7A, Compound 1 7.5 ppm, read-out: % Mortality (observed))?
**A.** Its mortality at […] is 6%.

**Q.** What about the mortality at 10 ppm ([5]; Frankliniella occidentalis, 168 h, rate 10 ppm, single compound, spray, 7 days, read-out: % mortality (obs)) of the same compound?
**A.** Its mortality at 10 ppm is 44%.

**Q.** What about the mortality at 50 ppm ([5]; Frankliniella occidentalis, 168 h, rate 50 ppm, single compound, spray, 7 days, read-out: % mortality (obs)) of the same compound?
**A.** The mortality at 50 ppm was 49%.

**Q.** What about the mortality at 100 ppm ([5]; Frankliniella occidentalis, 168 h, rate 100 ppm, single compound, spray, 7 days, read-out: % mortality (obs)) of the same compound?
**A.** The mortality at 100 ppm was 46%.

**Q.** What about the mortality at 8 ppm ([5]; Frankliniella occidentalis, Table 3A, Compound 1 8 ppm, read-out: % Mortality (observed)) of the same compound?
**A.** Its mortality at 8 ppm is 3%.

**Q.** And the mortality at 25 ppm ([5]; Frankliniella occidentalis, Table 3A, Compound 1 25 ppm, read-out: % Mortality (observed))?
**A.** The mortality at 25 ppm was 17%.

**Q.** What about the mortality at 81 ppm ([5]; Frankliniella occidentalis, Table 3A, Compound 1 81 ppm, read-out: % Mortality (observed)) of the same compound?
**A.** The mortality at 81 ppm was 30%.

**Q.** And the mortality at 8 ppm ([6]; Bemisia argentifolii, in Gossypium hirsutum, Table 2A, Compound 1 8 ppm, read-out: % Mortality (observed))?
**A.** The mortality at 8 ppm was 4%.

**Q.** What about the mortality at 10 ppm ([6]; Bemisia argentifolii, in Gossypium hirsutum, Table 2A, Compound 1 10 ppm, read-out: % Mortality (observed)) of the same compound?
**A.** The mortality at 10 ppm was 1%.

**Q.** And the mortality at 6 ppm ([6]; Bemisia argentifolii, in Gossypium hirsutum, Table 2B, rate 6 ppm, read-out: % mortality (obs))?
**A.** Its mortality at 6 ppm is 3%.

**Q.** And the mortality at 8 ppm ([6]; Bemisia argentifolii, in Gossypium hirsutum, Table 2B, rate 8 ppm, read-out: % mortality (obs))?
**A.** Its mortality at 8 ppm is 3%.

**Q.** And the mortality at 10 ppm ([6]; Bemisia argentifolii, in Gossypium hirsutum, Table 2B, rate 10 ppm, read-out: % mortality (obs))?
**A.** The mortality at 10 ppm was 5%.

**Q.** `COC(=O)N(C(=O)N1CO[C@@]2(C(=O)OC)Cc3cc(Cl)ccc3C2=N1)c1ccc(OC(F)(F)F)cc1` [Indoxacarb] was tested. Which “% mortality (obs)” value ([1]; rate 0.5 ppm, alone) did it give?
**A.** The value was 33%.

**Q.** What about the “% mortality (obs)” value ([1]; rate 1 ppm, alone) of the same compound?
**A.** Its value is 20%.

**Q.** What about the “% mortality (obs)” value ([1]; rate 2 ppm, alone) of the same compound?
**A.** The value was 27%.

**Q.** What about the “% mortality (obs)” value ([2]; rate 10 ppm) of the same compound?
**A.** The value was 16%.

**Q.** And the “% mortality (obs)” value ([2]; rate 20 ppm)?
**A.** Its value is 28%.

**Q.** And the “% mortality (obs)” value ([2]; rate 30 ppm)?
**A.** Its value is 34%.

**Q.** And the “% mortality (obs)” value ([3]; Corn Plant Hopper, rate 50 ppm)?
**A.** The value was 3%.

**Q.** And the “% mortality (obs)” value ([3]; Corn Plant Hopper, rate 500 ppm)?
**A.** The value was 4%.

**Q.** What about the “% mortality (obs)” value ([3]; Corn Plant Hopper, rate 3000 ppm) of the same compound?
**A.** Its value is 18%.

**Q.** And the “% mortality (obs)” value ([4]; Green Peach Aphid, rate 10 ppm)?
**A.** Its value is 9%.

**Q.** And the “% mortality (obs)” value ([4]; Green Peach Aphid, rate 20 ppm)?
**A.** The value was 7%.

**Q.** And the “% mortality (obs)” value ([4]; Green Peach Aphid, rate 30 ppm)?
**A.** The value was 8%.

**Q.** What about the “% mortality (obs)” value [5, 7] of the same compound?
**A.** The value was 50%.

**Q.** What about the “% mortality (obs)” value [5, 8] of the same compound?
**A.** The value was 50%.

**Q.** And the “% mortality (obs)” value ([5]; rate 3000 ppm, single compound, spray, 7 days)?
**A.** Its value is 50%.

**Q.** What about the “% mortality (obs)” value ([6]; Table 2B, rate 1 ppm) of the same compound?
**A.** Its value is 0%.

**Q.** And the “% mortality (obs)” value ([6]; Table 2B, rate 3 ppm)?
**A.** Its value is 0%.

**Q.** What about the “% mortality (obs)” value ([6]; Table 2B, rate 10 ppm) of the same compound?
**A.** The value was 0%.
